Molecules are shown by their SMILES.

This data set in a line: gradient 5% acetonitrile 3 min, to 50% in 2 min, to 85% in 15 min, held 3 min, 100 µL/min. The note with it: column: Zorbax Extend-C18 2.1 x 50 mm; eluents: water / acetonitrile, 0.1% formic acid. The method, boiled down: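 Using water and acetonitrile that each contained 0.1% formic acid, mixtures of ~100 pure standards were separated at 100 μL/min on a Zorbax Extend-C18 column (2.1 × 50 mm, 1.8 μm). The HPLC fed a quadrupole time-of-flight mass spectrometer working in positive and negative ionization mode, with dead and dwell volumes of 40 μL and 900 μL. Data were acquired over 3 months. Retention time was read from computationally picked adduct peaks after manual inspection of each.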
On to `CCn1ccc2sc(C)c(C(=O)NCc3cccs3)c2c1=O`, for which the RP-LC retention time worked out at 772 s.

With `COc1cc(NC(=O)c2sc(-n3cccc3)nc2C(C)C)cc(OC)c1`, the RP-LC retention time came out at 1210 s.

On to `O=C(NCCN1CCCCC1)c1ccc2c(=O)n(-c3ccc(F)cc3)c(N3CCCC3)nc2c1`, for which the RP-LC retention time is 629 s.

As to `CN(C)CC1CN(C(=O)c2cc(F)ccc2F)CC12CCOCC2` (configuration not stated), the RP-LC retention time is 572 s.

On to `Cc1cccc(CC(=O)N2C[C@@H]3C[C@H]2C[C@@H]3NC(=O)c2cccs2)c1`, for which the RP-LC retention time amounted to 778 s.

With `CCOc1ccc(N2C(=O)C3N=NN(Cc4nc(-c5ccccc5)no4)C3C2=O)cc1` (configuration not stated), the RP-LC retention time was determined as 885 s.

In turn, `C[C@H]1CC[C@]2(NC1)O[C@H]1C[C@H]3[C@@H]4CC[C@H]5C[C@@H](O)CC[C@]5(C)[C@H]4CC[C@]3(C)[C@H]1[C@@H]2C` had an RP-LC retention time of 776 s.

In turn, `O=[N+]([O-])c1ccc(CSc2ccc(-c3ccccn3)nn2)cc1` returned an RP-LC retention time of 893 s.

Consider `CCN1C(=O)NC(c2ccccc2Cl)C2=C1CN(C(C(=O)N1CCCC1)C(C)C)C2=O` (configuration not stated), for which the RP-LC retention time stood at 680 s.

For `Cc1nc(-c2cn(C)c3ncccc23)sc1C(=O)NCc1ccccc1`, the RP-LC retention time came out at 863 s.

As to `Cn1c(=O)c(N2CCC(NC(=O)NCCc3ccccc3)CC2)nc2ccccc21`, the RP-LC retention time came out at 857 s.

For the compound `O=C(Nc1cccc(OCc2nnc(-c3ccccc3)o2)c1)c1cccnc1`, the RP-LC retention time turned out to be 750 s.

Turning to `COc1ccc(-c2ncc3c(n2)CCN(S(=O)(=O)c2ccccc2Cl)C3)cc1`, the RP-LC retention time is 1070 s.

Turning to `O=C(NCc1ccco1)c1ccc2c(c1)CCCN2S(=O)(=O)c1ccc(Cl)cc1`, the RP-LC retention time worked out at 999 s.

The compound `CNC(=O)C1CN(C(=O)c2cccc(Cl)c2)CC12CCCC2` (configuration not stated) gave an RP-LC retention time of 726 s.

In turn, `O=C(Nc1cccc(Cl)c1)C(=O)c1c[nH]c2ccccc12` yielded an RP-LC retention time of 1040 s.

Compound `COc1cccc(CCC(=O)Nc2ccc3c(c2)Sc2ncccc2C(=O)N3C)c1` displayed an RP-LC retention time of 1210 s.

Turning to `COc1ccc(-n2c(=O)n(C)c(=O)c3cc(C(=O)Nc4ccc5c(c4)OCO5)cnc32)cc1`, the RP-LC retention time was found to be 841 s.

On to `CC(=O)c1ccc(NC(=O)CSc2ncc(-c3ccc(C)c(C)c3)o2)cc1`, for which the RP-LC retention time came out at 970 s.

In turn, `O=C(Cn1nc2ccc(C(=O)NCc3ccccc3)cn2c1=O)NC1CCc2ccccc21` (configuration not stated) returned an RP-LC retention time of 766 s.

As to `CS(=O)(=O)N1CCCCC1C(=O)Nc1nnc(-c2ccco2)o1` (configuration not stated), the RP-LC retention time is 641 s.

On to `CC(C)NC(=O)c1cccc(N2C(=O)NC3CC2(C)Oc2ccc(Br)cc23)c1` (configuration not stated), for which the RP-LC retention time was determined as 793 s.

In the case of `COc1cccc(NC(=O)Cn2c(C)cc(-c3nnc(-c4ccc(F)cc4)o3)c2C)c1`, the RP-LC retention time was determined as 943 s.

For `CC(C)NC(=O)c1cc2nc(N(C)C)n(-c3ccccc3)c2s1`, the RP-LC retention time stood at 885 s.

In turn, `CCOCC(=O)N1CC(c2nc(-c3ccc(F)cc3)no2)C2(CCOCC2)C1` (configuration not stated) yielded an RP-LC retention time of 771 s.

On to `CC(C)C(=O)N1CCc2c(c(C(=O)N3CCC(C(=O)NCc4ccc(F)cc4)CC3)nn2C)C1`, for which the RP-LC retention time was found to be 675 s.

Regarding `CCC(=O)NCc1nc2c(n1CC)CN(S(=O)(=O)c1ccc(F)cc1)CC2`, the RP-LC retention time turned out to be 575 s.

The compound `Cc1ccc(Cn2cc(-c3ccncc3)cc2C(=O)NCc2ccc(N(C)C)cc2)cc1` registered an RP-LC retention time of 630 s.

For `CCNC(=O)N(CC(=O)N1CCc2sccc2C1COc1ccccc1)C(C)CC` (configuration not stated), the RP-LC retention time came out at 892 s.

Consider `O=C(Nc1ccc2c(c1)OCCO2)N1CCc2nn(CC3CC3)c(=O)n2CC1`, for which the RP-LC retention time stood at 703 s.

Compound `CC(=O)N1CCC(C(=O)N2CCCn3cc(-c4ccccc4)nc32)CC1` gave an RP-LC retention time of 602 s.

Compound `Cn1cnc2c(C(=O)N3CCOCC3)nn(-c3ccc(Cl)cc3)c2c1=O` registered an RP-LC retention time of 690 s.

Compound `O=C(Nc1cccc(-c2ccc(N3CCOCC3)nn2)c1)Nc1ccccc1C(F)(F)F` registered an RP-LC retention time of 750 s.

Turning to `Cc1ccc2nc(C(=O)NCc3ccc(OC(C)C)cc3)cn2c1`, the RP-LC retention time came to 731 s.

For the compound `CCCn1cc(S(=O)(=O)Nc2ccc(F)c(C)c2)c2cccnc21`, the RP-LC retention time came to 923 s.

With `CC(C)CC(=O)Nc1ccc(-n2cnc(C(=O)NC3CC3)c2)nc1`, the RP-LC retention time came to 668 s.

`c1ccc(-c2nc3cc(-c4noc(-c5ccncc5)n4)ccc3o2)cc1` yielded an RP-LC retention time of 1290 s.

Regarding `Cc1sc(-c2nnc(C3CC3)o2)cc1NC(=O)c1cccc(N(C)C)c1`, the RP-LC retention time was determined as 896 s.

The compound `O=C(CSc1nccc2ccccc12)Nc1ccccc1C(F)(F)F` showed an RP-LC retention time of 1080 s.

For `Cc1cc(Cl)ccc1NC(=O)C1CCN(S(=O)(=O)c2c(C)nn(-c3ccccc3)c2C)CC1`, the RP-LC retention time was determined as 1020 s.

Take `Cc1ccc(Nc2c(-c3ccccc3O)nc3ccc(Br)cn23)cc1`: the RP-LC retention time was determined as 1070 s.

Compound `O=C(Cc1csc(Nc2cccc(C(F)(F)F)c2)n1)NCc1cccs1` yielded an RP-LC retention time of 886 s.

With `CCNc1cc(N2CCC(CCC(=O)NCc3ccc(F)cc3)CC2)ncn1`, the RP-LC retention time came out at 574 s.

`Cc1ccc(-c2ccc(-n3nc(C)c(S(=O)(=O)NCc4ccccc4)c3C)nn2)cc1` gave an RP-LC retention time of 1090 s.

Regarding `O=C(OCc1cc(-c2ccc3c(c2)OCCO3)on1)c1ccc(Br)o1`, the RP-LC retention time came out at 978 s.

Compound `CCCC(=O)Nc1ccc(OCc2cc(C(=O)NC3CCCC3)no2)cc1` gave an RP-LC retention time of 854 s.

Consider `CN1C(=O)c2cccnc2Sc2cc(NC(=O)C3CC3)ccc21`, for which the RP-LC retention time amounted to 650 s.

For `Fc1cccc(-c2nc(-c3cn(-c4ccccc4)nn3)no2)c1`, the RP-LC retention time is 1040 s.

`O=C(CCn1c(=O)sc2ccccc21)N(Cc1ccccc1)Cc1ccccc1`: the RP-LC retention time was 1040 s.

`CCN1C(=O)C2(CCN(C(=O)c3ccc(OC(C)C)cc3)CC2)c2ccccc21` gave an RP-LC retention time of 1020 s.

As for `CSc1cccc(N2C(=O)C3N=NN(Cc4nc(-c5ccccc5)no4)C3C2=O)c1` (configuration not stated), the RP-LC retention time turned out to be 992 s.

On to `CCCCCn1c(=O)c2ccccc2n(Cc2nc(-c3cccc(OC)c3)no2)c1=O`, for which the RP-LC retention time was found to be 1130 s.

As to `O=C(CSCc1ccccc1)NCC1CCN(C(=O)Oc2ccccc2)CC1`, the RP-LC retention time came to 853 s.

As to `COc1ccc(NC(=O)c2cccn2Cc2noc(C)n2)cc1`, the RP-LC retention time turned out to be 776 s.

Regarding `O=C1CCCCC(Cc2ccccc2)(C(=O)NC2CCS(=O)(=O)C2)N1` (configuration not stated), the RP-LC retention time stood at 656 s.

As to `Cc1nn(-c2nc(-c3ccc(Cl)cc3)cs2)c(C)c1CC(=O)N1CCOCC1`, the RP-LC retention time was determined as 1030 s.

As for `COC(=O)c1cccc(NC(=O)C2CC(=O)N(c3ccc4c(c3)CCN4C(C)=O)C2)c1` (configuration not stated), the RP-LC retention time was 687 s.

The compound `CCOC(=O)c1cccc(Nc2c(C(=O)N3CCCC(C)C3)cnc3nc(C)ccc23)c1` (configuration not stated) yielded an RP-LC retention time of 653 s.

Consider `O=C(CN1CC=C(c2cnn(-c3ccccc3)c2)CC1)N1CCC(N2CCCCC2)CC1`, for which the RP-LC retention time amounted to 573 s.

For the compound `COc1ccc(NC(=O)c2c(C)oc3nc(C)nc(N4CCOCC4)c23)cc1Cl`, the RP-LC retention time was found to be 788 s.

For `CCOc1ccc(NC(=O)N2CCN(c3ccc(=O)n(-c4ccc(F)cc4)n3)CC2)cc1`, the RP-LC retention time is 804 s.

In the case of `CN1CCN(C(c2ccncc2)c2c(NC(=O)c3ccco3)sc3c2CCCC3)CC1` (configuration not stated), the RP-LC retention time was found to be 636 s.

`CC(C)c1cc(Oc2c(Br)cc(NC(=O)CC(=O)O)cc2Br)ccc1O` displayed an RP-LC retention time of 940 s.

Turning to `CCN1c2ccccc2C(=O)NC12CCN(C(=O)Nc1ccccc1C)CC2`, the RP-LC retention time came out at 731 s.

For `Cn1nc(C(=O)N2CCCC2)c2c1CCN(C(=O)CCC(=O)NCCc1c[nH]c3ccccc13)C2`, the RP-LC retention time was 685 s.

Compound `O=C(Nc1nnc(C2CCCO2)o1)c1ccc([N+](=O)[O-])s1` (configuration not stated) displayed an RP-LC retention time of 685 s.

Compound `Cc1csc(-c2csc(S(=O)(=O)N(C)Cc3ccccc3)c2)n1` returned an RP-LC retention time of 1090 s.

The compound `Cc1ccc(Nc2c(-c3ccc(N(C)C)cc3)nc3cc(C)ccn23)cc1` registered an RP-LC retention time of 828 s.

Regarding `CCOC(=O)C1CCN(C(=O)c2cn3c(n2)CN(CC)CC3)CC1`, the RP-LC retention time was found to be 575 s.

The compound `COc1ccc(NC(=O)N2CCC(n3cnc4ccc(Cl)cc4c3=O)CC2)c(OC)c1` registered an RP-LC retention time of 803 s.

The compound `Cc1nc(-c2noc(-c3ccccc3)n2)cn1CC(=O)N1CCN(c2ccccc2F)CC1` showed an RP-LC retention time of 894 s.

Consider `COc1cccc(CN2CCc3nc(N4CCCC4)ncc3C2)c1OC`, for which the RP-LC retention time worked out at 610 s.

Regarding `Cc1ccc(S(=O)(=O)N2CCc3nc(-c4ccc(F)cc4)ncc3C2)cc1C`, the RP-LC retention time was 1170 s.

Regarding `Cc1ccc(C(=O)N2CCc3sc(C(=O)N4CCN(C(C)C)CC4)cc3C2)cc1`, the RP-LC retention time came to 625 s.

For the compound `CNC(=O)[C@@H]1CN(C(=O)c2cnc(C)cn2)C[C@H]1c1n[nH]c(C)n1`, the RP-LC retention time was 549 s.

With `O=C(Cn1c(=O)c(CCC(=O)NC2CC2)nc2ccccc21)NCc1ccccc1`, the RP-LC retention time was 693 s.

The compound `COc1ccccc1N1CCN(CCCNc2c(C)c(=O)n(C)c(=O)n2C)CC1` had an RP-LC retention time of 646 s.

The values are drawn from the METLIN SMRT retention time set (Domingo-Almenara et al. 2019).
